Numbered stars: 1 amine (or outer) side, 2 acyl side, 3 side chain; on linkers, the order of the positions; unused ones are H or OH. Bridge positions count the residues as written; N and C are the ends. Square brackets hold non-standard residues; d marks the D form. Peptide text beside a SMILES is read from it. I, II: the chains in the order shown. * marks the point of attachment. Hexanoyl(6-succinimido-3yl) = O=C1CC([*:1])C(=O)N1CCCCCC(=O)[*:2]; Pteroyl = Nc1nc2ncc(CNc3ccc(C(=O)*)cc3)nc2c(=O)[nH]1; Dolaproine = CO[C@@H]([C@@H]1CCCN1)[C@@H](C)C(=O)O; Dil = CC[C@H](C)[C@H](NC)[C@@H](CC(=O)O)OC; PABC = O=C(OCc1ccc(N[*:1])cc1)[*:2]; X1 = C[C@@H](N*)[C@@H](O)c1ccccc1; Cit = NC(=O)NCCC[C@H](N)C(=O)O; NMeV = CN[C@H](C(=O)O)C(C)C
How the values were obtained:
[1] = system: human lung cancer cell H460; test: Cytotoxicity test of conjugate LDC10BR; format: cell-based; settings: H460, incubated 15-30 min, then 2-3 days
Procedure: (§1) Culture medium: RPMI 1640 Medium, no folic acid
(§2) 1) human nasopharyngeal cancer cell line KB, melanoma cell line A375, and human lung cancer cell H460 were incubated at 37° C., 5% CO2 in RPMI 1640 medium containing 10% fetal bovine serum, the cells were passaged every 2-3 days.
(§3) 2) human nasopharyngeal cancer cell line KB, melanoma cell line A375, and human lung cancer cell H460 were plated at 1×10^3 cells per well (96-well plate) and incubated for 8-12 h at 37° C., 5% CO2.
(§4) 3) Stock solutions of LDC conjugates or control were prepared in PBS solution. 100 μL/well of serially diluted LDC conjugates or control was added to the cells in the plate and incubated for 15-30 min at 37° C., 5% CO2. The culture medium in the wells was then removed by aspiration and the cells were incubated in fresh culture medium without conjugates (150 μL/well) for 2-3 days at 37° C., 5% CO2.
(§5) 4) CellTiter 96® Aqueous One Solution Cell Proliferation Assay (Promega) was added to each well to measure the amount of […] cells, and the plate was incubated in an incubator for 1 h at 37° C., 5% CO2.
(§6) 5) the plate was read at 490 nm on a microplate reader, and the cell survivals were compared for cells with or without the treatment of LDC conjugates. The LDC drug concentrations that are required for 50% cell death (IC50 values) were determined.

[2] = system: human nasopharyngeal cancer cell line KB; test: Cytotoxicity test of conjugate LDC10BR; format: cell-based; settings: incubated 15-30 min, then 2-3 days
Procedure: as §1, §2, §3, §4, §5, §6

melanoma cell line A375 = test: Cytotoxicity test of conjugate LDC10BR; format: cell-based; settings: A375, incubated 15-30 min, then 2-3 days
Procedure: as §1, §2, §3, §4, §5, §6

[3] = system: receptor positive cell lines; test: Cytotoxicity test of conjugate LDC10BR, comparison over cell lines; format: cell-based
Procedure: as §1, §2, §3, §4, §5, §6

[4] = system: KB (folate receptor positive cell); test: Endocytosis test of conjugate LDC10B (FITC conjugates, confocal microscope); format: cell-based, human; design: endocytosis after pre-incubation with free Folate: dose or concentration left out as unconfirmed
Procedure: (§7) The involved conjugates are as follows: Folate-FITC (FITC-ACP-Lys (Folate)-OH), 10B-FITC, and 10A-FITC.
as §1
(§8) 1) human nasopharyngeal cancer cell line KB, melanoma cell line A375, human lung cancer cell H460, ovarian cancer cell SKOV3, breast cancer cell line HCC1954 were incubated at 37° C., 5% CO2 in RPMI 1640 medium containing 10% fetal bovine serum, the cells were passaged every 2-3 days.
(§9) 2) human nasopharyngeal cancer cell line KB, melanoma cell line A375, human lung cancer cell H460, ovarian cancer cell SKOV3, breast cancer cell line HCC1954 were plated at 1×10^3 cells per well (96-well plate) and incubated for 8-12 h at 37° C., 5% CO2.
(§10) 3) 1 μM of FITC conjugates or control was added to the cells in the plate and incubated for 10-15 min at 37° C. The culture medium in the wells was then removed by aspiration and the cells were washed with PBS for three times.
(§11) 4) cells were then imaged with confocal microscope (brand) to visualize endocytosis.

[5] = system: A375 (folate receptor negative cell); test: as above; format: cell-based; settings: 1 μM FITC conjugate, 10-15 min at 37° C.
Procedure: as §7, §1, §8, §9, §10, §11

Compound: CC[C@H](C)[C@@H]([C@@H](CC(=O)N1CCC[C@H]1[C@H](OC)[C@@H](C)C(=O)N[C@H](C)[C@@H](O)c1ccccc1)OC)N(C)C(=O)[C@@H](NC(=O)[C@H](C(C)C)N(C)C(=O)OCc1ccc(NC(=O)[C@H](CCCNC(N)=O)NC(=O)[C@@H](NC(=O)CCCCCN2C(=O)CC(SC[C@H](NC(=O)[C@H](CC(=O)O)NC(=O)CNC(=O)[C@H](CCCNC(=N)N)NC(=O)[C@H](CCC(=O)O)NC(=O)c3ccc(NCc4cnc5[nH]c(N)nc(=O)c5n4)cc3)C(=O)N[C@@H](CCCCN)C(=O)N[C@@H](CCC(=O)O)C(=O)N[C@@H](Cc3ccccc3)C(=O)N[C@@H](CC(C)C)C(=O)N[C@@H](Cc3c[nH]cn3)C(=O)N3CCC[C@H]3C(=O)N[C@@H](CO)C(=O)N[C@@H](CCCCN)C(=O)N[C@H](C(=O)N[C@@H](CC(=O)O)C(=O)N[C@@H](CC(C)C)C(=O)N3CCC[C@H]3C(=O)N[C@@H](CCCNC(=N)N)C(=O)O)C(C)C)C2=O)C(C)C)cc1)C(C)C (stereo partly shown) [LDC10BR] (I: Pteroyl-ERGDCKEFLHPSKVDLPR-OH / II: V[Cit][PABC][NMeV]V[Dil][Dolaproine]-X1; linker I:5-II:N via Hexanoyl(6-succinimido-3yl))
- IC50 [1]: 6.4 µM
- IC50 [2]: 6.6 µM
- IC50 (melanoma cell line A375): 38.1 µM
- cytotoxicity compared with bi-ligand conjugate LDC10B (in words) [3]: comparable to the bi-ligand conjugate LDC10B

Compound: FITC-ACP-Lys (Folate)-OH [Folate-FITC]
- endocytosis (enters cells) ([4]; 1 μM FITC conjugate, 10-15 min at 37° C., KB cells): enters KB cells
- endocytosis after pre-incubation with free Folate ([4]; pre-incubating KB cells with (50 fold excess of conjugate) free Folate, data not shown): completely blocked
- endocytosis (enters cells) [5]: but not A375 cells

Reference: US11571480B2, “Multi-ligand drug conjugates and uses thereof” (priority 2015, dated 2023)
